The source of these data is ChEMBL document CHEMBL2390942, “Novel 3,5-bis(arylidene)-4-piperidone dimers: potent cytotoxins against colon cancer cells” (Eur J Med Chem, 2013).

Each structure is given as a SMILES string. Active and inactive are the calls of the source. The rule behind the calls is not given here.

The IC50 is the concentration at which inhibition is half-maximal.

For experiment [1], the system named is HT-29. Kind of experiment: Ratio of 5-fluorouracil IC50 to compound IC50 for human HT-29 cells after 48 hrs by sulforhodamine B assay. It is filed as functional. For orientation: The SRB assay estimates cell density from bound dye.
Experiment [2] concerns HCT-116. The experiment is described as follows: Ratio of 5-fluorouracil IC50 to compound IC50 for human HCT116 cells after 48 hrs by sulforhodamine B assay. It counts as functional.
Experiment [3] concerns HCT-116. The experiment is described as follows: Cytotoxicity against human HCT116 cells after 48 hrs by sulforhodamine B assay. It is filed as functional, cell-based. Particulars: HCT-116, 48 h.
Experiment [4] deals with HT-29. Kind of experiment: Cytotoxicity against human HT-29 cells after 48 hrs by sulforhodamine B assay. It is filed as functional, cell-based. Particulars: HT-29, 48 h.
Experiment [5] has as its system Mus musculus. Kind of experiment: Reduction in hepatic glutathione levels in ip dosed mouse relative to control. It is filed as functional. Further details: scale not given: the % may be the effect or the level left.
Experiment [6] has as its system HCT-116. The experiment is described as follows: Induction of apoptosis in human HCT116 cells assessed as apoptotic cells at 1 uM after 24 hrs by Annexin V-FITC and propidium iodide staining-based FACS flow cytometric analysis (reference value: 2.82%). It is filed as functional. Background: A flow cytometer gives signals particle by particle.
Experiment [7] has as its system HCT-116. The experiment is described as follows: Cell cycle arrest in human HCT116 cells assessed as accumulation at S phase at 1 uM after 48 hrs by propidium iodide staining-based FACS flow cytometric analysis. It is filed as functional.
Experiment [8] relates to HT-29. The experiment is described as follows: Cell cycle arrest in human HT-29 cells assessed as accumulation at S phase at 1 uM after 48 hrs by propidium iodide staining-based FACS flow cytometric analysis. It counts as functional.
Experiment [9] has as its system HCT-116. The experiment is described as follows: Induction of apoptosis in human HCT116 cells assessed as live cells at 1 uM after 24 hrs by Annexin V-FITC and propidium iodide staining-based FACS flow cytometric analysis (reference value: 59.15%). It counts as functional.
For experiment [10], the system named is HCT-116. Kind of experiment: Induction of apoptosis in human HCT116 cells assessed as live cells at 1 uM after 48 hrs by Annexin V-FITC and propidium iodide staining-based FACS flow cytometric analysis (reference value: 47.40%). It is filed as functional.
Experiment [11] deals with HCT-116. The experiment is described as follows: Cell cycle arrest in human HCT116 cells assessed as accumulation at G2/M phase at 1 uM after 48 hrs by propidium iodide staining-based FACS flow cytometric analysis. It is filed as functional.
For experiment [12], the system named is HT-29. The experiment is described as follows: Cell cycle arrest in human HT-29 cells assessed as accumulation at G2/M phase at 1 uM after 48 hrs by propidium iodide staining-based FACS flow cytometric analysis. It is filed as functional.
Experiment [13] has as its system HCT-116. The experiment is described as follows: Induction of apoptosis in human HCT116 cells assessed as apoptotic cells at 1 uM after 48 hrs by Annexin V-FITC and propidium iodide staining-based FACS flow cytometric analysis (reference value: 2.59%). It counts as functional.
Experiment [14] relates to HCT-116. The experiment is described as follows: Induction of apoptosis in human HCT116 cells assessed as dead cells at 1 uM after 48 hrs by Annexin V-FITC and propidium iodide staining-based FACS flow cytometric analysis (reference value: 49.93%). It is filed as functional.
The subject of experiment [15] is HCT-116. Kind of experiment: Induction of apoptosis in human HCT116 cells assessed as dead cells at 1 uM after 24 hrs by Annexin V-FITC and propidium iodide staining-based FACS flow cytometric analysis (reference value: 38.02%). It is filed as functional.

`COc1cc(/C=C2\CN(C(=O)C(=O)N3C/C(=C\c4cc(OC)c(OC)c(OC)c4)C(=O)/C(=C/c4ccc(OC)c(OC)c4OC)C3)C/C(=C\c3cc(OC)c(OC)c(OC)c3)C2=O)cc(OC)c1OC`: the results for the “Ratio IC50” value in experiment [1] and in experiment [2] were 24 and 17, respectively. Besides, the IC50 in [3] and in experiment [4] was 270 nM throughout.

For `O=C1/C(=C\c2ccc(Cl)c(Cl)c2)CN(C(=O)CC(=O)N2C/C(=C\c3ccc(Cl)c(Cl)c3)C(=O)/C(=C/c3ccc(Cl)c(Cl)c3)C2)C/C1=C\c1ccc(Cl)c(Cl)c1`, the “Ratio IC50” value in [1] is 1.1; in experiment [2], 0.17. For the same compound, the results for the concentration for half-maximal inhibition (IC50) in experiment [3] and in experiment [4] were 26700 nM and 6050 nM, respectively.

`O=c1[nH]cc(F)c(=O)[nH]1` [FLUOROURACIL]: the “Ratio IC50” value in [1] and in experiment [2] was 1 each time. The IC50 in experiment [3] amounted to 4520 nM; in experiment [4] it was 6350 nM.

With `O=C1/C(=C/c2ccc(Cl)cc2)CN(C(=O)C(=O)N2C/C(=C\c3ccc(Cl)cc3)C(=O)/C(=C/c3ccc(Cl)cc3)C2)C/C1=C\c1ccc(Cl)cc1`, the “Ratio IC50” value in experiment [1] worked out at 8; in experiment [2], 151. Besides, the results for the IC50 in [3] and in experiment [4] were 30 nM and 780 nM, respectively.

`O=C1/C(=C/c2ccccc2)CN(C(=O)C(=O)N2C/C(=C\c3ccccc3)C(=O)/C(=C/c3ccccc3)C2)C/C1=C\c1ccccc1`: the “Ratio IC50” value came to 454 in [1] and 113 in [2]. Also, the IC50 in experiment [3] was determined as 40 nM; in experiment [4], 14 nM.

For the compound `COc1ccc(/C=C2/CN(C(=O)CC(=O)N3C/C(=C\c4ccc(OC)c(OC)c4)C(=O)/C(=C/c4ccc(OC)c(OC)c4)C3)C/C(=C\c3ccc(OC)c(OC)c3)C2=O)cc1OC`, the “Ratio IC50” value turned out to be 20 in experiment [1] and 25 in [2]. Moreover, the values for the IC50 in experiment [3] and in experiment [4] were 180 nM and 310 nM, respectively.

On to `Cc1ccc(/C=C2/CN(C(=O)CC(=O)N3C/C(=C\c4ccc(C)cc4)C(=O)/C(=C/c4ccc(C)cc4)C3)C/C(=C\c3ccc(C)cc3)C2=O)cc1`, for which the “Ratio IC50” value amounted to 32 in [1] and 11 in experiment [2]. The IC50 in experiment [3] was 410 nM; in experiment [4] it was 200 nM.

With `O=C1/C(=C\c2ccc(O)cc2)CN(C(=O)CC(=O)N2C/C(=C\c3ccc(O)cc3)C(=O)/C(=C/c3ccc(O)cc3)C2)C/C1=C\c1ccc(O)cc1`, the “Ratio IC50” value in experiment [1] worked out at 14; in experiment [2] it was 6. In addition, the figures for the concentration for half-maximal inhibition (IC50) in experiment [3] and in [4] were 720 nM and 460 nM, respectively.

Turning to `O=C1/C(=C\c2ccccc2)CN(CCCN2C/C(=C\c3ccccc3)C(=O)/C(=C/c3ccccc3)C2)C/C1=C\c1ccccc1`, the “Ratio IC50” value in experiment [1] amounted to 3; in [2], 7. Also, the figures for the IC50 in experiment [3] and in experiment [4] were 680 nM and 2150 nM, respectively.

In the case of `COc1ccc(/C=C2/CN(C(=O)CC(=O)N3C/C(=C\c4ccc(OC)cc4)C(=O)/C(=C/c4ccc(OC)cc4)C3)C/C(=C\c3ccc(OC)cc3)C2=O)cc1`, the “Ratio IC50” value in experiment [1] is given as 8; in experiment [2] it was 75. Moreover, the IC50 came to 60 nM in experiment [3] and 770 nM in experiment [4].

The compound `O=C1/C(=C/c2ccccc2)CNC/C1=C\c1ccccc1` yielded an Activity in experiment [5] of 19%.

Take `Cc1ccc(/C=C2\CN(C(=O)C(=O)N3C/C(=C\c4ccc(C)cc4)C(=O)/C(=C/c4ccc(C)cc4)C3)C/C(=C\c3ccc(C)cc3)C2=O)cc1`: the figures for the “Ratio IC50” value in [1] and in experiment [2] were 49 and 50, respectively. Further, the IC50 in [3] was 90 nM; in experiment [4], 129 nM.

For the compound `O=C1/C(=C\c2ccc(Cl)cc2)CN(C(=O)CC(=O)N2C/C(=C\c3ccc(Cl)cc3)C(=O)/C(=C/c3ccc(Cl)cc3)C2)C/C1=C\c1ccc(Cl)cc1`, the “Ratio IC50” value in [1] was found to be 71; in experiment [2], 90. The IC50 amounted to 50 nM in experiment [3] and 90 nM in [4].

As to `O=C1/C(=C\c2ccccc2)CN(C(=O)CC(=O)N2C/C(=C\c3ccccc3)C(=O)/C(=C/c3ccccc3)C2)C/C1=C\c1ccccc1`, the “Ratio IC50” value in [1] came out at 2117; in experiment [2], 226. Further, the IC50 in experiment [3] was 20 nM; in [4], 3 nM.

`O=C(O)/C=C/C(=O)N1C/C(=C\c2ccccc2)C(=O)/C(=C/c2ccccc2)C1` registered an Activity in experiment [5] of 29%.

On to `COc1ccc(/C=C2\CN(C(=O)C(=O)N3C/C(=C\c4ccc(OC)cc4)C(=O)/C(=C/c4ccc(OC)cc4)C3)C/C(=C\c3ccc(OC)cc3)C2=O)cc1`, for which the Activity in experiment [6] is 34.93%; in experiment [9], 44.4%; in experiment [10], 24.47%; in experiment [13] it was 38.51%; in [14] it was 37.82%; in experiment [15], 21.63%. For the same compound, the entries for the “Ratio IC50” value in [1] and in experiment [2] were 37 and 226, respectively. In addition, the result in [7], in experiment [8], in experiment [11] and in experiment [12] was inactive. Besides, the IC50 in experiment [3] is 20 nM; in experiment [4] it was 170 nM.

As to `CN(C)c1ccc(/C=C2\CN(C(=O)C(=O)N3C/C(=C\c4ccc(N(C)C)cc4)C(=O)/C(=C/c4ccc(N(C)C)cc4)C3)C/C(=C\c3ccc(N(C)C)cc3)C2=O)cc1`, the “Ratio IC50” value is 0.34 in [1] and 0.17 in experiment [2]. In addition, the half-inhibitory concentration (IC50) stood at 27400 nM in experiment [3] and 18600 nM in [4].

With `O=C1/C(=C/c2ccc(F)cc2)CN(C(=O)C(=O)N2C/C(=C\c3ccc(F)cc3)C(=O)/C(=C/c3ccc(F)cc3)C2)C/C1=C\c1ccc(F)cc1`, the “Ratio IC50” value in [1] is 212; in experiment [2], 226. Besides, the half-maximal inhibitory concentration (IC50) was 20 nM in experiment [3] and 30 nM in experiment [4].

`COc1cc(/C=C2/CN(C(=O)CC(=O)N3C/C(=C\c4cc(OC)c(OC)c(OC)c4)C(=O)/C(=C/c4cc(OC)c(OC)c(OC)c4)C3)C/C(=C\c3cc(OC)c(OC)c(OC)c3)C2=O)cc(OC)c1OC`: the “Ratio IC50” value in [1] is reported as 159; in experiment [2], 226. Moreover, the IC50 is 20 nM in [3] and 40 nM in experiment [4].

As to `COc1ccc(/C=C2\CN(C(=O)C(=O)N3C/C(=C\c4ccc(OC)c(OC)c4)C(=O)/C(=C/c4ccc(OC)c(OC)c4)C3)C/C(=C\c3ccc(OC)c(OC)c3)C2=O)cc1OC`, the “Ratio IC50” value in experiment [1] was 11; in experiment [2], 151. Also, the figures for the IC50 in experiment [3] and in experiment [4] were 30 nM and 568 nM, respectively.

In the case of `CN(C)c1ccc(/C=C2/CN(C(=O)CC(=O)N3C/C(=C\c4ccc(N(C)C)cc4)C(=O)/C(=C/c4ccc(N(C)C)cc4)C3)C/C(=C\c3ccc(N(C)C)cc3)C2=O)cc1`, the “Ratio IC50” value in experiment [1] and in [2] was less than 1 throughout. Further, the IC50 in experiment [3] and in [4] was more than 25000 nM each time.

Consider `O=C1/C(=C\c2ccc(F)cc2)CN(C(=O)CC(=O)N2C/C(=C\c3ccc(F)cc3)C(=O)/C(=C/c3ccc(F)cc3)C2)C/C1=C\c1ccc(F)cc1`, for which the “Ratio IC50” value is 35 in experiment [1] and 8 in experiment [2]. Also, the IC50 in experiment [3] came to 600 nM; in experiment [4], 180 nM.

As to `COc1cc(/C=C/C(=O)CC(=O)/C=C/c2ccc(O)c(OC)c2)ccc1O` [CURCUMIN], the entries for the “Ratio IC50” value in experiment [1] and in experiment [2] were 0.48 and 0.39, respectively. The IC50 in experiment [3] stood at 11500 nM; in [4] it was 13200 nM.
